# Columns and labels:
# Assay type in all cases: in vivo, mouse
# [1] = system: pulmonary fibrosis model mice (intratracheal bleomycin); assay: Lung weight in bleomycin-induced pulmonary fibrosis model mice, preventive dosing (Example 1); conditions: male ICR mice, bleomycin 1.5 mg/kg intratracheal, lungs at day 21, FIG. 1; for lung weight as compared to the normal group: oral from the day after exposure, compound A 50 mg/kg/day, losartan 50 mg/kg/day, pirfenidone 400 mg/kg/day
# Protocol: (§1) 6-week-old male ICR mice (Japan SLC, Inc.) were exposed to bleomycin (Nippon Kayaku Co., Ltd.) (1.5 mg/kg) dissolved in physiological saline in the trachea to prepare pulmonary fibrosis model mice.
# (§2) Investigation was conducted in mice not exposed to bleomycin (exposed to physiological saline in the trachea) in the normal group (6 mice), and pulmonary fibrosis model mice exposed to bleomycin in the trachea divided into 4 groups (control, compound A 50 mg/kg/day, losartan 50 mg/kg/day, and pirfenidone 400 mg/kg/day; 10 mice in each group). From the day after exposure to bleomycin, a 0.5% aqueous solution of methylcellulose was orally administered (administered twice a day) to the normal group and the control group, the sample solution of compound A prepared above was orally administered (administered once a day) to the compound A administration group, the sample solution of losartan prepared above was orally administered (administered once a day) to the losartan administration group, and the sample solution of pirfenidone prepared above was orally administered (administered twice a day) to the pirfenidone administration group, respectively. Twenty-one days after the bleomycin exposure, the mice were anesthetized and whole lung tissues were extracted.
# After washing the lung tissue extracted from the mouse with physiological saline, water was removed with a filter paper, and the wet weight was measured.
# [2] = system: pulmonary fibrosis model mice (intratracheal bleomycin); assay: Amount of hydroxyproline in the lungs of bleomycin-induced pulmonary fibrosis model mice, preventive dosing (Example 1); conditions: preventive: oral from the day after bleomycin exposure, FIG. 2; for hydroxyproline in the lung as compared to the control group: compound A 50 mg/kg/day, losartan 50 mg/kg/day, lungs at day 21, Dunnett test
# Protocol: as §1, §2
# The lung tissue extracted from the mouse was homogenized in a PBS solution, then mixed with an equal volume of 12N hydrochloric acid in a tube, and incubated at 110° C. for 20 to 24 hours. After the incubation, the solution was volatilized by opening the tube and continuing the incubation. […] 10 μL of the sample was added with 100 μL of chloramine T solution (1.4% chloramine T, 10% n-propanol, 80% citrate acetate buffer) and incubated at room temperature for 20 minutes, then added with 100 μL of Ehrlich's reagent (1 M p-dimethylamino benzaldehyde, 20% perchloric acid, 50% n-propanol) and incubated at 65° C. for 15 minutes, and the absorbance at 550 nm was measured to quantify the amount of hydroxyproline.
# [3] = system: pulmonary fibrosis model mice (intratracheal bleomycin); assay: Amount of hydroxyproline in the lungs of bleomycin-induced pulmonary fibrosis model mice, therapeutic dosing (Example 2); conditions: therapeutic: oral from the 7th day after bleomycin exposure; compound A 50 mg/kg/day, losartan 50 mg/kg/day, pirfenidone 400 mg/kg/day; lungs at day 21; Dunnett test; FIG. 3
# Protocol: Model mice were prepared in the same manner as in Example 1.
# as §2, with “From the 7th day after” for “From the day after”
# The amount of hydroxyproline in the mice was measured by the same method as in Example 1.
SMILES,"lung weight as compared with the control group ([1]; oral 50 mg/kg/day once a day from the day after exposure, Dunnett test p<0.05)",lung weight as compared to the normal group [1],"decrease in hydroxyproline in the lung relative to the losartan administration group ([2]; compound A 50 mg/kg/day vs losartan 50 mg/kg/day, day 21)",hydroxyproline in the lung as compared to the control group [2],hydroxyproline in the lung as compared to the control group [3]
"CCCc1nc(C(C)C)n(-c2ncc(OCC)cn2)c(=O)c1Cc1ccc(-c2ccccc2-c2noc(=O)[nH]2)nc1 [compound A, 3-[2-(5-{[1-(5-ethoxypyrimidin-2-yl)-2-isopropyl-6-oxo-4-propyl-1,6-dihydropyrimidin-5-yl]methyl}pyridin-2-yl)phenyl]-1,2,4-oxadiazol-5(4H)-one]",significant decrease in lung weight,no significant increase in lung weight,larger decrease than the losartan administration group,significant decrease in hydroxyproline in the lung,significant decrease in hydroxyproline in the lung
CCCCc1nc(Cl)c(CO)n1Cc1ccc(-c2ccccc2-c2nn[nH]n2)cc1 [losartan],–,significant increase in lung weight,–,significant decrease in hydroxyproline in the lung,no significant difference
Cc1ccc(=O)n(-c2ccccc2)c1 [pirfenidone],–,significant increase in lung weight,–,–,no significant difference

# Reference: patent US20210077491A1, “PHARMACEUTICAL COMPOSITION” (Kowa Company, Ltd., priority 2017, published 2021)
